Results taken from patent US8409550B2, “Method for treating skin with retinoids and retinoid boosters” (Unilever Home & Personal Care, USA, Division of Conopco, …, priority 2000, dated 2013).
“And” between values parts separate entries of the source, which are not always exact repeats. Equal values may be shown once. Read-outs that look alike come from different tables or passages of the source.

Columns and labels:
ARAT = test: Assay for ARAT activity, bovine RPE microsomes (to identify B1); type: biochemical; conditions: for % Inhibition ARAT (100 jm): compound 100 jm; for % Inhibition ARAT (10 jm): compound 10 jm
Description: (§1) 2.1 Isolation of RPE Microsomes (Modified from (1))
(§2) 50 frozen hemisected bovine eyecups, with the retina and aqueous humor removed were obtained from W. L. Lawson Co., Lincoln, Nebr., USA. The eyes were thawed overnight and the colored iridescent membrane was removed by peeling with forceps. Each eyecup was washed with 2× 0.5 mL cold buffer (0.1M PO4/1 mM DTT/0.25N sucrose, pH 7) by rubbing the darkly pigmented cells with an artist's brush or a rubber policeman. The cell suspension was added to the iridescent membranes and the suspension was stirred for several minutes in a beaker with a Teflon stir bar.
(§3) The cell homogenate was centrifuged for 30 min. at 20,000 g (Sorvaal model RC-5B centrifuge with an SS34 rotor in 2.5×10 cm tubes at 14,000 RPM). The resulting supernatant was subjected to further centrifugation for 60 min. at 150,000 g (Beckman model L80 Ultracentrifuge with an SW50.1 rotor in 13×51 mm tubes at 40,000 RPM). The resulting pellets were dispersed into ˜5 mL 0.1M PO4/5 mM DTT, pH 7 buffer using a Heat Systems Ultrasonics, Inc. model W185D Sonifier Cell Disrupter, and the resulting microsomal dispersion was aliquoted into small tubes and stored at −70° C. The protein concentrations of the microsomes were determined using the BioRad Dye binding assay, using BSA as a standard.
(§4) 2.3 Assay for ARAT and LRAT Activity (to Identify B1)
(§5) The procedure below was a modification of a method described in the literature (2). The following buffer was prepared and stored at 4° C.: 0.1M PO4 5 mM dithiothreitol, pH 7.0 (PO4/DTT). On the day of the assay, 2 mg BSA per mL of buffer was added to give a PO4/DTT/BSA working buffer. 1 mM retinol substrate was prepared in acetonitrile and stored in amber bottles under nitrogen gas at −20° C. Solutions of 4 mM Palmitoyl-CoA in working buffer (stored in aliquots) and 4 mM dilauroyl phosphatidyl choline in ethanol were prepared and stored at −20° C. Inhibitors were prepared as 10 mM stock solutions in H2O, ethanol, acetonitrile or DMSO. The quench solution was prepared using pure ethanol containing 50 μg/mL butylated hydroxytoluene (BHT), and a hexane solution containing 50 μg/mL BHT was used for the extractions.
(§6) The mixture was incubated for 5 min. at 37° C. to equilibrate the reaction temperature and then 5 μL 1 mM retinol was added. The vials were capped, vortexed for 5 seconds and incubated for 30-90 minutes at 37° C. The reaction was quenched by adding 0.5 mL ethanol/BHT. The retinoids were extracted by adding 3 mL hexane/BHT, vortexing the tubes for several seconds several times and centrifuging the tubes at low speed for 5 min. to quickly separate the layers. The upper hexane layer was removed into a clean vial, and the aqueous layer re-extracted with another 3 mL hexane/BHT, as described above. The hexane layers were combined, and the hexane evaporated by drying at 37° C. under a stream of nitrogen gas on a heated aluminum block. The dried residue was stored at −20° C. until HPLC analysis. The amount of retinyl palmitate and retinyl laurate was quantitated for ARAT and LRAT activity, respectively, by integration of the HPLC signal as described below.
(§7) Note that the incubation solution contains 40 μM acyl donor, 100 μM or less inhibitor, 10 uM retinol, approximately 30 μg/mL microsomal protein, and nearly 0.17 PO4/pH 7/5 mM DTT/2 mg/mL BSA. All steps subsequent to the addition of retinol were done in the dark or under amber lights.
(§8) Samples for retinoid quantitation by HPLC were prepared by dissolving the residue in each vial with 100 μL of methanol. […] Aliquots of 60 μL were injected immediately and analysed for retinoid content.
(§9) Two HPLC protocols were used for retinoid analysis.
(§10) These protocols were selected based on their ability to clearly resolve pertinent retinoid acids, alcohols, aldehydes, and/or esters for each assay and relative quickness of separation.

[1] = tested on: transglutaminase (TGase I); test: Transglutaminase (Tgase) ELISA assay in cultured keratinocytes with retinol and boosters; type: cell-based, human; conditions: for TG as % C, Compd 3: Compound 3 alone; for TG as % C, Compd 3 / TG as % C Compd 2 / TG as % C Compd 1: concentration one log below IC20; for IC20: IC20 (80% of control); for Tgase levels (Mean): with 10^-7 M retinol
Description: For this reason, a transalutaminase (Tgase) assay was utilised.
Thus TGase I is a useful marker of epidermal keratinocyte differentiation with high TGase I levels indicating a more differentiated state. An ELISA based TGase I assay, using a TGase I antibody, was used to assess the state of differentiation of the cultured keratinocytes in the examples that follow.
Keratinocytes (cultured as described above) were plated in 96 well plates at a density of 4,000-5,000 cells per well in 200 μl media. After incubation for two to three days, or until cells are ˜50% confluent, the media was changed to media containing test compounds (five replicates per test). The cells were cultured for a further 96 hours after which time the media was aspirated and the plates stored at −70° C. Plates were removed from the freezer, and the cells were washed twice with 200 μl of 1×PBS. The cells were incubated for one hour at room temperature (R/T) with TBS/5% BSA (wash buffer, bovine serum albumin). Next the TGase primary antibody was added: 50 μl of monoclonal anti-Tgase I Ab B.C. diluted 1:2000 in wash buffer. The primary antibody was incubated for 2 hours at 37° C. and then rinsed 6× with wash buffer. Cells were then incubated with 50 μl of secondary antibody (Fab fragment, peroxidase conjugated anti-mouse IgG obtaining from Amersham) diluted 1:4,000 in wash buffer for two hours at 37° C., then rinsed three times with wash buffer. Following the rinse with washing buffer, the cells were rinsed 3× with PBS. For colourimetric development, the cells were incubated with 100 μl substrate solution (4 mg o-phenylenediamine and 3.3 μl 30% H2O2 in 10 ml 0.1M citrate buffer pH 5.0) for exactly five minutes, R/T, in darkness (under aluminum foil). The reaction was stopped by the addition of 50 μl 4 N H2SO4. […] Out of the five replicates, four were treated with both antibodies, the fifth one was use as a Tgase background control. Tgase levels were determined and expressed as percentage control.
A suspension of keratinocytes was prepared at a concentration of 3000 cells/200 μl/well in KGM medium (Used 3×10^5 cells/12 ml media in each microtitre plate)
200 μl of the keratinocyte suspension was transferred into each of the inner 60 wells only.
Each plate was incubated at 37° C. and 5% CO2 for 3 days or until cells are ˜50% confluent.
Stock solutions of the samples were prepared in DMSO.
The samples were diluted to desired concentration with the final assay concentration of DMSO being 0.1%.

LRAT = molecular target: T1, LRAT (Bos taurus, UniProt Q9BGL2); test: Assay for LRAT activity, bovine RPE microsomes (to identify B1); type: biochemical; conditions: compound 100 jm
T1 construct: followed by approximately 15 μg of RPE microsomal protein; tissue W. L. Lawson Co., Lincoln, Nebr., USA (eyecups); host or cells: bovine retinal pigment epithelium microsomes
T1 sequence (Q9BGL2 1-230): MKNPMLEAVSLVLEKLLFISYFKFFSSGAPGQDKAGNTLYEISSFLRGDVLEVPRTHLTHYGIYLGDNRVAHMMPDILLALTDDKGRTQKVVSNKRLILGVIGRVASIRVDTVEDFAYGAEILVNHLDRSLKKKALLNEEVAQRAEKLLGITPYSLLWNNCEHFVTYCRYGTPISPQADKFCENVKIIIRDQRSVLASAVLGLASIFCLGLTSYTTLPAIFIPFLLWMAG
Description: as §1, §2, §3, §4, §5, §6, §7, §8, §9, §10

[2] = in the presence of 10^-7M retinol
[3] = compound tested individually in the presence of 10^-7 M retinol
[4] = Tgase inhibition, compound tested individually in the presence of 10^-7 M retinol, read-out: IC50
[5] = B1 table, booster concentration which with 10^−7 M retinol inhibits TGase by 50%, same values in the 19th table (Molar), read-out: Overall TG (IC 50)
[6] = Compound 1 alone, in the presence of 10^-7M retinol
[7] = Compound 2 alone, in the presence of 10^-7M retinol

## CCN(CC)CC(=O)Nc1c(C)cccc1C [Lidocaine, reference compound]
ARAT
  % Inhibition ARAT (100 jm): 12%

## CC/C=C\C/C=C\C/C=C\CCCCCCCC(=O)O [Linolenic Acid]
[1]; [2]
  TG as % C, Compd 3: 208 % C
[1]; [3]
  IC20: 121 µM

## CCCCC/C=C\C/C=C\C/C=C\C/C=C\CCCC(=O)[O-].[Na+] [Arachidonic Acid (Na+ salt)]
[1]; [2]
  TG as % C, Compd 3: 78 % C

## CCCCCCCCCCCC1=NCCN1CCO [Lauryl Hydroxyethylimidazoline]
[1]; B5 table, with 10^−7 M retinol, read-out: Overall TG (IC 50)
  IC50: 0.467 µM
[1]; [2]
  TG as % C, Compd 3: 52 % C
[1]; [3]
  IC20: 0.269 µM
[1]; [4]
  IC50: 0.467 µM
[1]; compound 2 alone, with retinol
  TG as % C Compd 2: 73 % C
[1]; compound 2 alone, with retinol, listed as Lauryl hydorxyimidazoline
  TG as % C Compd 2: 106 % C
[1]; compound 2 alone, with retinol, listed as Lauryl hydroxyethylimiazoline
  TG as % C Compd 2: 98 % C

## C/C=C\C(=O)C1C(C)=CCCC1(C)C (centres unmarked) [a-Damascone]
[1]; [2]
  TG as % C, Compd 3: 89 % C

## CCCCC/C=C\C/C=C\CCCCCCCC(=O)NCCO [Linoleoyl Monoethanolamide]
[1]; [5]
  IC50: 16.1 µM
[1]; [3]
  IC20: 14.8 µM
[1]; [4]
  IC50: 16.1 µM

## CCCCCCCC/C=C/CCCCCCCC(=O)O [Elaidic Acid]
[1]; [6]
  TG as % C Compd 1: 93 % C
[1]; [2]
  TG as % C, Compd 3: 93 % C
[1]; [3]
  IC20: 58.8 µM
[1]; [4]
  IC50: 65 µM
[1]; compound 2 alone, with retinol
  TG as % C Compd 2: 144 % C

## CCCCCCCCCCCCCCCCC(O)C(=O)O (centres unmarked) [2-hydroxysteric acid, 2-Hydroxystearic acid]
[1]; [7]
  TG as % C Compd 2: 83 % C
[1]; compound 1 alone, with retinol
  TG as % C Compd 1: 92 % C

## CC(=O)/C=C/C1C(C)=CCCC1(C)C (centres unmarked) [a-Ionone]
[1]; [2]
  TG as % C, Compd 3: 88 % C

## Alpha-Ionone
[1]; [5]
  IC50: 927 µM
[1]; [3]
  IC20: 142 µM
[1]; [4]
  IC50: 927 µM
[1]; compound 1 alone, with retinol
  TG as % C Compd 1: 101 % C

## CC12CCC(C1)C(C)(C)C2O (centres unmarked) [Fenchyl Alcohol]
ARAT
  % Inhibition ARAT (100 jm): 12%

## Ethyl Saffranate
LRAT
  % Inhibition LRAT (100 jm): 49%

## O=C1CCc2ccccc2N1
[1]; [7]
  TG as % C Compd 2: 90 % C
[1]; [2]
  TG as % C, Compd 3: 90 % C

## O=C(O)CCCCCCCCCCCCCCC(=O)O [Hexadecanedioic Acid]
[1]; [7]
  TG as % C Compd 2: 90 % C
[1]; [3]
  IC20: 84 µM
[1]; [4]
  IC50: 130 µM
[1]; compound 2 alone, with retinol
  TG as % C Compd 2: 125 % C

## CC(C)=CCCC(C)=CCCC(C)=CCO [Farnesol]
ARAT
  % Inhibition ARAT (10 jm): 23% +/− 18
  % Inhibition ARAT (100 jm): 53% +/− 18
[1]; [2]
  TG as % C, Compd 3: 118 % C
[1]; [3]
  IC20: 78.2 µM
[1]; compound 1 alone, with retinol
  TG as % C Compd 1: 98 % C

## Castor Oil MEA
[1]; [5]
  IC50: 32.5 µM
[1]; [4]
  IC50: 32.5 µM
[1]; compound 1 alone, with retinol
  TG as % C Compd 1: 110 % C
[1]; compound 1 alone, with retinol, listed as Caster oil MEA
  TG as % C Compd 1: 96 % C

## Nn1nnc2ccccc21
[1]; [7]
  TG as % C Compd 2: 105 % C
[1]; [2]
  TG as % C, Compd 3: 105 % C
[1]; compound 2 alone, with retinol
  TG as % C Compd 2: 105 % C and 126 % C
[1]; compound 2 alone, with retinol, listed as Aminobenzotriazole
  TG as % C Compd 2: 98 % C

## CC(C)=CCCC(C)=CC=O [Citral]
ARAT
  % Inhibition ARAT (100 jm): 20%

## O=C1C[C@@H](c2ccc(O)cc2)Oc2cc(O)cc(O)c21 [Naringenin]
ARAT
  % Inhibition ARAT (100 jm): 33%
[1]; [2]
  TG as % C, Compd 3: 94 % C
[1]; compound 1 alone, with retinol
  TG as % C Compd 1: 95 % C

## CCCCC/C=C\C/C=C\CCCCCCCC(=O)NCCCN(C)C [Linoleamidopropyl Dimethylamine]
ARAT
  % Inhibition ARAT (100 jm): 69% +/− 18

## CC(C)=CCC/C(C)=C/CO [Geraniol]
ARAT
  % Inhibition ARAT (10 jm): 13%
  % Inhibition ARAT (100 jm): 32%
[1]; [2]
  TG as % C, Compd 3: 105 % C
[1]; [3]
  IC20: 4720 µM

## CC1=C(/C=C/C(C)=C/C=C/C(C)=C/CO)C(C)(C)CCC1 [retinol, All-trans-retinol, reference compound]
[1]; 1 μM retinoid, day 2, keratinocytes 4000 cells/well
  inhibition of transglutaminase production (maximal): 55%

## CC(C)CCCCCCCCCCCCCCC(=O)O [Isostearic Acid]
[1]; [7]
  TG as % C Compd 2: 87 % C
[1]; [3]
  IC20: 62.3 µM
[1]; compound 2 alone, with retinol
  TG as % C Compd 2: 146 % C

## CCCCCCCCCCCCCCCC(=O)NCCO [Palmitamide Monoethanolamide]
[1]; [2]
  TG as % C, Compd 3: 95 % C

## Oleyl Betaine
ARAT
  % Inhibition ARAT (100 jm): 47%
[1]; [5]
  IC50: 28 µM
[1]; [6]
  TG as % C Compd 1: 62 % C
[1]; [3]
  IC20: 10.8 µM
[1]; [4]
  IC50: 28 µM
[1]; compound 1 alone, with retinol, listed as Oleoyl beatine
  TG as % C Compd 1: 96 % C
[1]; compound 1 alone, with retinol, listed as Oleoyl betaine
  TG as % C Compd 1: 99.5 % C

## CCCCC/C=C/C/C=C/CCCCCCCC(=O)NC(C)c1ccccc1 (centres unmarked) [Melinamide, reference compound]
ARAT
  % Inhibition ARAT (100 jm): 64% +/− 15

## CCCCCCCC(=O)OC[C@H](COP(=O)(O)OCCN)OC(=O)CCCCCCC [1,2-dioctanoyl-sn-glycero-3-phosphoethanolamide]
[1]; [6]
  TG as % C Compd 1: 81 % C
[1]; booster 1.6E−04 Molar
  Tgase levels (Mean): 58.1 % of control
[1]; booster 1.78E−05 Molar
  Tgase levels (Mean): 104 % of control
[1]; booster 1.79E−9 Molar
  Tgase levels (Mean): 82 % of control
[1]; booster 1.98E−06 Molar
  Tgase levels (Mean): 110 % of control
[1]; booster 2.19E−09 Molar
  Tgase levels (Mean): 88.6 % of control
[1]; booster 4.39E−08 Molar
  Tgase levels (Mean): 127.3 % of control
[1]; booster 5.33E−05 Molar
  Tgase levels (Mean): 95.4 % of control
[1]; booster 5.93E−06 Molar
  Tgase levels (Mean): 129 % of control
[1]; booster 6.58E−07 Molar
  Tgase levels (Mean): 92.8 % of control
[1]; booster 8.78E−09 Molar
  Tgase levels (Mean): 119 % of control
[1]; compound 1 alone, with retinol
  TG as % C Compd 1: 123 % C and 95 % C and 106 % C

## […]-Ionone
[1]; [6]
  TG as % C Compd 1: 68 % C
